Experimental data from EPA's ToxValDB 9.5 (doi:10.2903/j.efsa.2010.1692).

Tests used:
[1] = system: Anas platyrhynchos; details: short-term; oral; feed; mortality
[2] = system: Aphidius rhopalosiphi; details: not reported; reproduction
[3] = system: Apis mellifera; details: acute; duration: 48 hours; oral; unspecified; mortality
[4] = system: Chrysoperla externa; details: not reported; mortality
[5] = system: Coturnix coturnix
[6] = system: Lepomis macrochirus; details: acute; duration: 96 hours; mortality
[7] = system: Lymnaea stagnalis; details: chronic/long-term; duration: 41 days
[8] = system: Oncorhynchus mykiss; details: acute; duration: 96 hours; mortality
[9] = system: Pimephales promelas; details: chronic/long-term; duration: 32 days
[10] = system: Rattus norvegicus
[11] = system: Tagia sp.; details: acute; mortality

SMILES: COc1cc(OC)nc(Oc2cccc(Oc3nc(OC)cc(OC)n3)c2C(=O)[O-])n1.[Na+] [Bispyribac-sodium]
- LC50 [1]: > 2060 mg/kg
- LEL [2]: 3 g/ha
- LD50 [3]: > 141 µg/piece
- LEL [4]: 30 g/ha
- LC50 ([5]; acute, oral, diet, mortality): > 2080 mg/kg
- LD50 ([5]; acute, oral, mortality): > 2250 mg/kg
- NOEC ([5]; reproduction developmental, reproduction): 116 mg/kg-day
- LC50 [6]: > 95 µg/mL
- NOEC [7]: ≥ 10 mg/L
- LC50 [8]: > 95 µg/mL
- NOEC [9]: ≥ 10 mg/L
- LD50 ([10]; acute, oral, mortality): 2640 mg/kg
- NOAEL ([10]; chronic, duration: 2 years, hematological): 1.1 mg/kg-day
- NOAEC ([10]; reproduction developmental, body weight): 50 mg/kg-day
- NOAEL ([10]; reproduction developmental, histopathology: nonneoplastic): 1 mg/kg-day
- NOAEL ([10]; subchronic, duration: 90 days, oral, clinical chemistry): 7.2 mg/kg-day
- LC50 [11]: > 957 mg/kg
